Test results taken from US5334595A, “Pyrazoloquinolones as anticancer agents” (priority 1992, dated 1994).

Legend:
Parameters in all cases: species or system mice
[1] = test system: lung carcinoma No. 12 (LC 12); assay: In vivo antitumor assay, LC12(sc); conditions: drug iv, qd 3,5, exp 1161
Excerpt: (§1) Mice: Inbred: C3H/He and NCR-nu; and Hybrids: B6D2F1 (C57BL/6 females×DBA/2 males, CD2F1 (Balb/c females×DBS/2 males) and B6C3fl (C57BL/6×C3H) were bred at Wayne State University from strains obtained from the Frederick Cancer Research Facility, Frederick, Maryland or purchased from commercial suppliers.
(§2) Tumors: Murine Tumor: P388 and an adriamycin-resistant (ADR) subline P388/ADR leukemia and the following transplantable solid tumors of mice were used for in vivo testing: B16 melanoma (B16), pancreatic ductal adenocarcinoma No. 03 (Pane 03), colon adenocarcinoma No. 38 (colo 38), lung carcinoma No. 12 (LC 12), mammary ductal adenocarcinoma No. 16/C (Mam16C) and an adriamycin-resistant subline Mam16C/ADR. Human tumor: A single human tumor, mammary carcinoma MX-1 was used for in vivo testing. All tumors are in the Developmental Therapeutics Program frozen tumor respository, maintained by the Biological Testing Branch, Frederick Maryland. Each has a detailed description, code identification number, and list of references at the National Tumor Repository. Murine tumors were maintained in the mouse strain of origin and were transplanted in the appropriate F1 hydrid (or the strain of origin) for therapy trials. […]
(§3) Quantitative end points used to assess antitumor activity included % Increased Life Span (% ILS), Tumor Cell Kill (Log10 kill), and Tumor Growth Inhibition (T/C). […]
(§4) Tumors were measured with a caliper once or twice weekly (as needed) until either tumors exceeded 1600 mg or cure was assured. […] When the control group tumors reached approximately 750-1500 mg in size (median of group), the median tumor weight of each group was determined (including zeros). […] The % T/C was calculated from the following formula for solid murine tumor models: [formula] where T and C are median tumor weights of the treatment and control groups, respectively. […] By convention the T/C value for the mammary carcinoma MX-1 models is calculated by the parameter of change in tumor weight .

[2] = In vivo antitumor assay, LC12(sc); conditions: mouse, in vivo, drug iv, qd 3,5, exp 1161, MTD not achieved, maximum dose tested
Excerpt: as §1, §2, §3, §4

[3] = In vivo antitumor assay, Mam16C(sc); conditions: mouse, in vivo, drug iv, qd 1-4, exp 1132
Excerpt: as §1
(§5) Tumors: Murine Tumor: P388 and an adriamycin-resistant (ADR) subline P388/ADR leukemia and the following transplantable solid tumors of mice were used for in vivo testing: B16 melanoma (B16), pancreatic ductal adenocarcinoma No. 03 (Pane 03), colon adenocarcinoma No. 38 (colo 38), lung carcinoma No. 12 (LC 12), mammary ductal adenocarcinoma No. 16/C (Mam16C) and an adriamycin-resistant subline Mam16C/ADR. Human tumor: A single human tumor, mammary carcinoma MX-1 was used for in vivo testing. All tumors are in the Developmental Therapeutics Program frozen tumor respository, maintained by the Biological Testing Branch, Frederick Maryland. Each has a detailed description, code identification number, and list of references at the National Tumor Repository. Murine tumors were maintained in the mouse strain of origin and were transplanted in the appropriate F1 hydrid (or the strain of origin) for therapy trials. Human mammary carcinoma MX-1 (MX1) was maintained as a subcutaneous implant in either athymic Swiss (Cr: NIH(S)-nu) or athymic random bred (NCR-nu) mice and transplanted in NCR-nu for therapy trials.
(§6) Chemotherapy: For pancreatic ductal adenocarcinoma No. 3, colon adenocarcinoma No. 38 (colo 38), lung carcinoma No. 12 LC 12) and both adriamycin-sensitive (RP) and-resistant (ADR) mammary ductal adenocarcinoma No. 16 (Mam16) tumors, bilateral tumor implants were used to help ensure a more uniform tumor burden per mouse (thus reducing the requirement for greater numbers of mice per group). The animals necessary to begin an experiment were pooled, implanted bilaterally s.c. on day zero with 30-60 mg tumor fragments using a 12-gauge trocar, and again pooled before randomization to the various treatment and control groups. Chemotherapy was started within three days after tumor implantation while the number of cells per mouse was relatively small (1×10^7 -1×10^8 cells).
(§7) Quantitative end points used to assess antitumor activity included % Increased Life Span (% ILS), Tumor Cell Kill (Log10 kill), and Tumor Growth Inhibition (T/C). Long Term Survivors (45 or 60 day) were excluded from calculations of %ILS and Tumor Cell Kill.
(§8) The log10 cell kill was calculated from the following formula: [formula] where T-C is the tumor difference in the median day of death between the treated (T) and the control (C) groups and Td is the tumor doubling time (in days), the latter estimated from the best fit straight line from a log-linear growth plot of the control-group tumors in exponential growth. The conversion of the T-C values to log10 cell kill is possible because the Td for tumors regrowing post-treatment approximated the Td values of the tumors in untreated control mice.
(§9) Tumors were measured with a caliper once or twice weekly (as needed) until either tumors exceeded 1600 mg or cure was assured. […] When the control group tumors reached approximately 750-1500 mg in size (median of group), the median tumor weight of each group was determined (including zeros). […] The % T/C was calculated from the following formula for solid murine tumor models: [formula] where T and C are median tumor weights of the treatment and control groups, respectively. […]

[4] = test system: mammary ductal adenocarcinoma No. 16/C (Mam16C); assay: In vivo antitumor assay, Mam16C(sc); conditions: drug iv
Excerpt: as §1, §5, §6, §7, §8, §9

[5] = test system: adriamycin-resistant subline Mam16C/ADR; assay: In vivo antitumor assay, Mam16C/ADR; conditions: drug iv, qd 1,3,5, exp 1120A
Excerpt: as §1
as §2, with “Repository.” for “Repository. Murine tumors were maintained in the mouse strain of origin and were transplanted in the appropriate F1 hydrid (or the strain of origin) for therapy trials.”
as §3
as §8, with “The conversion of the T-C values to log10 cell kill is possible because the Td for tumors regrowing post-treatment approximated the Td values of the tumors in untreated control mice.” left out
as §9

[6] = In vivo antitumor assay, Mam16C/ADR; conditions: mouse, in vivo, drug iv, qd 1,3,5, exp 1120A, footnote 2: 2 lower doses equally active to modestly more active
Excerpt: as §1
as §2, with “Repository.” for “Repository. Murine tumors were maintained in the mouse strain of origin and were transplanted in the appropriate F1 hydrid (or the strain of origin) for therapy trials.”
as §3
as §8, with “The conversion of the T-C values to log10 cell kill is possible because the Td for tumors regrowing post-treatment approximated the Td values of the tumors in untreated control mice.” left out
as §9

Compound: Cc1cc(-c2c(F)cc3c4nn(CCN(C)C)c(=O)c-4cn(C4CC4)c3c2F)cc(C)n1.O=C(O)/C=C/C(=O)O [Example 1, 5-Cyclopropyl-6,8-difluoro-2,5-dihydro-2-[2-(dimethylamino)-ethyl]-7-(2,6-dimethyl-4-pyridinyl)-3H-pyrazolo[4,3-c]quinolin-3-one (E)-2-butendioate (1:1)]
- Log Kill [1]: 0.76
- T/C % [1]: 25%
- MTD [2]: > 35 mg/kg
- MTD [3]: 43 mg/kg
- Log Kill ([4]; qd 1,3,5, exp 1142A): 1.9
- T/C % ([4]; qd 1,3,5, exp 1142A): 18%
- Log Kill ([4]; qd 1-4, exp 1132): 1.3
- T/C % ([4]; qd 1-4, exp 1132): 7%
- Log Kill [5]: 0.50
- T/C % [5]: 26%
- MTD [6]: 58 mg/kg
